Assay results taken from BindingDB's records for doi:10.1016/j.bmcl.2019.04.009 (Wannan Medical College, 2019).
pIC50: −log10 of the molar value.

Molecular target: Epidermal growth factor receptor (Homo sapiens, UniProt P00533)
Test: Inhibition of EGFR L858R mutant (unknown origin) using polyE4Y1 as substrate measured after 60 mins

Epidermal growth factor receptor, sequence (P00533 25-1210 L858R limits assumed): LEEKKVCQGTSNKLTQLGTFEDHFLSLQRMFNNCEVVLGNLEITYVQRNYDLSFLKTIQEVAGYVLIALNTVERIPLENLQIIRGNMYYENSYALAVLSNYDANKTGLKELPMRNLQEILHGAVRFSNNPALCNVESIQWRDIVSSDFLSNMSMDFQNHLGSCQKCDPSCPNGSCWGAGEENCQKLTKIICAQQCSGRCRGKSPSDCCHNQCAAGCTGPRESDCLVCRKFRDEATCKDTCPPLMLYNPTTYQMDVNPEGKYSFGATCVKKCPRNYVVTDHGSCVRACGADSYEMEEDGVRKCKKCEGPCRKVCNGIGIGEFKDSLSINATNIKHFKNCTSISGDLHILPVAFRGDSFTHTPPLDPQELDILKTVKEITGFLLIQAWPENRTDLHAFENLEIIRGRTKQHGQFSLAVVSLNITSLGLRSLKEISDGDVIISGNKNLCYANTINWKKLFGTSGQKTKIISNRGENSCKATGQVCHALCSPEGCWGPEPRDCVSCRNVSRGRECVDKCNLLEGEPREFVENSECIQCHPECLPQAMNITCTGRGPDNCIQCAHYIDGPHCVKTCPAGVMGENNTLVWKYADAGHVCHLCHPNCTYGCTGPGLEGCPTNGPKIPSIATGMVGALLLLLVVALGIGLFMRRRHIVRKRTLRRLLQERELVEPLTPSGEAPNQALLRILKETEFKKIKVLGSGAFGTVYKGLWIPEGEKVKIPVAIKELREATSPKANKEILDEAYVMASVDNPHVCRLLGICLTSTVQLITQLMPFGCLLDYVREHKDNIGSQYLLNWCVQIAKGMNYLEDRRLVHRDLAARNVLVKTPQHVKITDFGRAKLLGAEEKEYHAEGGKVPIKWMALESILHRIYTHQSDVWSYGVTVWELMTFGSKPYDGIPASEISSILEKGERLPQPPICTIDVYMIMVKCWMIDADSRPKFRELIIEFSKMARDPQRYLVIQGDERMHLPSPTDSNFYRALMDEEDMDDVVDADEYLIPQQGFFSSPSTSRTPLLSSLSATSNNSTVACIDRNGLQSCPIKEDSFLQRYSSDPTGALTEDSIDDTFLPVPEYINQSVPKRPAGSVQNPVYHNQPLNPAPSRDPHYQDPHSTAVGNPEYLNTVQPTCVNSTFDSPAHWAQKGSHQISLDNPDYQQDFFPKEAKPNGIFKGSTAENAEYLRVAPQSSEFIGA

For `C[C@H]1[C@H](C)CC[C@]2(C(=O)O)CC[C@]3(COC(=O)/C=C/c4ccc(O)cc4)C(=CC[C@@H]4[C@@]5(C)CC[C@H](O)C(C)(C)[C@@H]5CC[C@]43C)[C@H]12` [27-trans-p-coumaroyloxyursolic acid], the pIC50 was 7.25.
